Measured values: EP0101588A1, “Compositions comprising amino and diamino acid derivatives and use thereof as plant growth stimulants” (S.I.P.C.A.M. S.p.A. Società Italiana Prodotti Chimici e per …, priority 1982, dated 1984)
Counter-ions that a name gives are not always drawn.

Legend:
Assay type in all cases: in vivo
[1] = test system: spinach; test: Field trial on spinach, 4 weekly treatments; details: 2 g/100 m^2 per treatment, untreated control 8.3
[2] = test system: San Marzano tomatoes; test: Field trial on tomatoes, spraying before and after flowering; details: 3 g/100 m^2 per treatment, 2 treatments before flowering and 3 weekly after flowering; untreated control 321
[3] = test system: lettuce; test: Field trial on lettuce, 4 weekly treatments; details: 2 g/100 m^2 per treatment, untreated control 18.0
[4] = test system: thiosemicarbazide-treated rabbits with epileptic type syndromes; test: Intramuscular injection in rabbits with epileptic type syndromes; details: 1 ml of 10% aqueous solution, as long as the level of the compound remains adequate
Procedure: Prepare an aqueous solution containing 10% pure N-carboxymethyl-gamma-aminobutyric acid disodium salt and autoclave for 2 h at 115°C.
Inject very slowly by intramuscular route 1 ml of the solution thus prepared in thiosemicarbazide-treated rabbits with epileptic type syndromes.

[5] = test system: Italy grapevines; test: Vineyard trial, applications mixed with fungicides; details: 1 g/100 m^2, 2 weekly applications before and 6 after flowering, mixed with fungicide mixtures; untreated control 234
[6] = test system: Radish; test: Greenhouse radish crop, spraying after emergence; details: 0.01 g/m^2 per treatment, two treatments at an interval of 4 days; for Radish crop roots only: untreated control 165; for Radish crop whole plants: untreated control 198

Compound | Harvest Spinach [1] [kg/100 m^2] | Fruit harvest [2] [kg/100 m^2] | Harvest Lettuce [3] [kg/100 m^2] | convulsions [4] | Grape harvest [5] [kg/100 m^2] | Radish crop roots only [6] [g/m^2] | Radish crop whole plants [6] [g/m^2]
O=C([O-])CCCNCC(=O)[O-].[Na+].[Na+] [N-carboxymethyl gamma-amino-butyric acid disodium salt] | 12.6 | 569 | 26.5 | convulsions disappear | 351 | 280 | 350
NCCCCNCC(=O)[O-].[Na+] [N-carboxymethyl-1,4-diamino-butane sodium salt] | 11.8 | 574 | 23.5 |  | 345 | 272 | 335
CC(NCCCC(=O)O)C(=O)O (stereo not shown) [N-methylcarboxymethyl-gamma-aminobutyric acid disodium salt] | 11.5 | 513 | 24.3 |  | 320 | 262 | 321
